Entries after “also recorded” stand apart in the source; their conditions may differ.
Key:
[1] = Clinical trial APD356-016: plasma and urine pharmacokinetics of lorcaserin, M1 and M5 after a 10 mg dose in subjects with renal impairment; conditions: for Ae0-120 / fe0-120: urine; for AUC24 hr / Cmax / t1/2: 10 mg QD Authentic, Day 1
Summary of the method: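 Single 10 mg lorcaserin dose in subjects grouped by renal function; plasma and urine sampled for lorcaserin, M1 and M5. Groups set by creatinine clearance from ideal body weight, with actual-weight regrouping also summarised; the dialysis subject counted as end-stage renal disease.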

[2] = tested on: panel of receptors, ion channels and transporters; experiment: Pharmacological activity of metabolites at a panel of receptors, ion channels and transporters
[3] = Preclinical toxicology: M1 and M5 pharmacokinetics after oral administration of lorcaserin, 52 wk, rats
[4] = 10 mg dose, Mild, actual BW groups
[5] = 10 mg dose, Mild, ideal BW groups
[6] = 10 mg dose, Moderate, actual BW groups
[7] = 10 mg dose, Moderate, ideal BW groups
[8] = 10 mg dose, Normal, actual BW groups
[9] = 10 mg dose, Normal, ideal BW groups
[10] = 10 mg dose, Severe N = 1, actual BW groups
[11] = 10 mg dose, Severe, ideal BW groups
[12] = lorcaserin 10 mg/kg/day oral, F
[13] = lorcaserin 10 mg/kg/day oral, M
[14] = lorcaserin 30 mg/kg/day oral, F
[15] = lorcaserin 30 mg/kg/day oral, M
[16] = lorcaserin 100 mg/kg/day oral, F
[17] = lorcaserin 100 mg/kg/day oral, M

C[C@H]1CN(S(=O)(=O)O)CCc2ccc(Cl)cc21 [Compound M1, lorcaserin sulfamate]
% AUC0-inf Extrapolated [1, 4]: 4.54%
ClNR/F [1, 4]: 16.7 L/h
T1/2z [1, 4]: 14.6 h
% AUC0-inf Extrapolated [1, 5]: 3.36%
ClNR/F [1, 5]: 12.8 L/h
T1/2z [1, 5]: 13.0 h
% AUC0-inf Extrapolated [1, 6]: 3.74%
ClNR/F [1, 6]: 18.2 L/h
T1/2z [1, 6]: 14.9 h
% AUC0-inf Extrapolated [1, 7]: 4.92%
ClNR/F [1, 7]: 17.0 L/h
T1/2z [1, 7]: 15.9 h
% AUC0-inf Extrapolated [1, 8]: 3.57%
ClNR/F [1, 8]: 15.1 L/h
T1/2z [1, 8]: 12.1 h
% AUC0-inf Extrapolated [1, 9]: 3.81%
ClNR/F [1, 9]: 17.1 L/h
T1/2z [1, 9]: 11.0 h
% AUC0-inf Extrapolated [1, 10]: 3.70%
ClNR/F [1, 10]: 17.2 L/h
T1/2z [1, 10]: 18.8 h
% AUC0-inf Extrapolated [1, 11]: 3.59%
AUC0-inf [1, 11]: 23.6 µg·h/mL
ClNR/F [1, 11]: 19.0 L/h
T1/2z [1, 11]: 15.0 h
Ae0-120 [1, 4]: 297 µg
fe0-120 [1, 4]: 0.0352
Ae0-120 [1, 5]: 326 µg
fe0-120 [1, 5]: 0.0386
Ae0-120 [1, 6]: 304 µg
fe0-120 [1, 6]: 0.0360
Ae0-120 [1, 7]: 327 µg
fe0-120 [1, 7]: 0.0387
Ae0-120 [1, 8]: 257 µg
fe0-120 [1, 8]: 0.0304
Ae0-120 [1, 9]: 185 µg
fe0-120 [1, 9]: 0.0220
Ae0-120 [1, 10]: 204 µg
fe0-120 [1, 10]: 0.0242
Ae0-120 [1, 11]: 280 µg
fe0-120 [1, 11]: 0.0332
Removal by hemodialysis ([1]; ESRD): not removed; also recorded: not cleared
AUC24 hr ([1]; ESRD): 3.65 µg·h/mL
Cmax ([1]; ESRD): 67.6 ng/mL
AUC24 hr ([1]; Mild): 1.94 µg·h/mL
Cmax ([1]; Mild): 43.5 ng/mL
t1/2 ([1]; Mild): 45.5 h
AUC24 hr ([1]; Moderate): 2.24 µg·h/mL
Cmax ([1]; Moderate): 34.1 ng/mL
t1/2 ([1]; Moderate): 70.8 h
AUC24 hr ([1]; Normal): 1.27 µg·h/mL
Cmax ([1]; Normal): 33.6 ng/mL
t1/2 ([1]; Normal): 36.2 h
AUC24 hr ([1]; Severe): 7.85 µg·h/mL
Cmax ([1]; Severe): 103 ng/mL
t1/2 ([1]; Severe): 220 h
Exposure (Geometric Mean Ratio for AUCinf) increase compared to normal subjects ([1]; mild (CLcr=51-80 mL/min)): 1.6 fold
Terminal half-life prolonged by ([1]; mild renal impairment): 26%
Exposure (Geometric Mean Ratio for AUCinf) increase compared to normal subjects ([1]; moderate (CLcr=31-50 mL/min)): 2.3 fold
Terminal half-life prolonged by ([1]; moderate renal impairment): 96%
Exposure (Geometric Mean Ratio for AUCinf) increase compared to normal subjects ([1]; severe (CLcr=5-30 mL/min)): 16.7 fold
Maximum individual Cmax relative to the mean Cmax ([1]; severe renal impairment): more than five times
Terminal half-life prolonged by ([1]; severe renal impairment): 508%
AUC0-inf of subject 3285-009 ([1]; severe renal impairment (ideal BW)): 101 µg·h/mL
Mean plasma concentration ([1]; severe renal impairment, eight individuals, day 1, 4 hours): 99.5 ng/mL
Plasma concentration (Cmax) of subject 3285-009 ([1]; severe renal impairment, day 1, 4 hours): 542 ng/mL
Activity at serotonin receptors or at a panel of more than 60 GPCRs, transporters and ion channels [2]: neither metabolite is active
Pharmacological activity against a panel of receptors, ion channels and transporters ([2]; concentration of 10 μM): pharmacologically inactive
AUC0-inf [3, 12]: 200 µg·h/mL
AUClast [3, 12]: 193 µg·h/mL
Cmax [3, 12]: 16300 ng/mL
tmax [3, 12]: 1.0 h
AUC0-inf [3, 13]: 175 µg·h/mL
AUClast [3, 13]: 170 µg·h/mL
Cmax [3, 13]: 15400 ng/mL
tmax [3, 13]: 1.0 h
AUC0-inf [3, 14]: 443 µg·h/mL
AUClast [3, 14]: 412 µg·h/mL
Cmax [3, 14]: 31700 ng/mL
tmax [3, 14]: 4.0 h
AUC0-inf [3, 15]: 338 µg·h/mL
AUClast [3, 15]: 319 µg·h/mL
Cmax [3, 15]: 23900 ng/mL
tmax [3, 15]: 1.0 h
AUC0-inf [3, 16]: 1480 µg·h/mL
AUClast [3, 16]: 1050 µg·h/mL
Cmax [3, 16]: 63700 ng/mL
tmax [3, 16]: 2.0 h
AUC0-inf [3, 17]: 927 µg·h/mL
AUClast [3, 17]: 633 µg·h/mL
Cmax [3, 17]: 36000 ng/mL
tmax [3, 17]: 0.5 h
